Values joined by “and” are separate entries in the source; they are usually repeats but may differ in a detail not shown here. Equal entries are not always repeated.
What was measured:
Assay in all cases: Kinase inhibition screen, cell-free 33P ATP assay at 10 μM
Type in all cases: biochemical
[1] = biological target: 140 purified human kinases (Homo sapiens, UniProt P17252); details: PKCa
Summary of the method: (§1)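 Radiometric ^33P ATP cell-free format with purified enzymes; both complexes run at 10 μM in duplicate, results plotted on a kinome map via HGNC symbols.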

[2] = biological target: 140 purified human kinases (Homo sapiens, UniProt O96017)
Summary of the method: as §1

[3] = biological target: 140 purified human kinases (Homo sapiens, UniProt Q13164)
Summary of the method: as §1

[4] = biological target: T1, 140 purified human kinases (Homo sapiens, UniProt P43403); details: for % Activity inhibition Mean / % Activity inhibition Run 1 / % Activity inhibition Run 2 / % Activity remaining Run 1 / % Activity remaining Run 2: 10 µM
T1 sequence (P43403 1-619): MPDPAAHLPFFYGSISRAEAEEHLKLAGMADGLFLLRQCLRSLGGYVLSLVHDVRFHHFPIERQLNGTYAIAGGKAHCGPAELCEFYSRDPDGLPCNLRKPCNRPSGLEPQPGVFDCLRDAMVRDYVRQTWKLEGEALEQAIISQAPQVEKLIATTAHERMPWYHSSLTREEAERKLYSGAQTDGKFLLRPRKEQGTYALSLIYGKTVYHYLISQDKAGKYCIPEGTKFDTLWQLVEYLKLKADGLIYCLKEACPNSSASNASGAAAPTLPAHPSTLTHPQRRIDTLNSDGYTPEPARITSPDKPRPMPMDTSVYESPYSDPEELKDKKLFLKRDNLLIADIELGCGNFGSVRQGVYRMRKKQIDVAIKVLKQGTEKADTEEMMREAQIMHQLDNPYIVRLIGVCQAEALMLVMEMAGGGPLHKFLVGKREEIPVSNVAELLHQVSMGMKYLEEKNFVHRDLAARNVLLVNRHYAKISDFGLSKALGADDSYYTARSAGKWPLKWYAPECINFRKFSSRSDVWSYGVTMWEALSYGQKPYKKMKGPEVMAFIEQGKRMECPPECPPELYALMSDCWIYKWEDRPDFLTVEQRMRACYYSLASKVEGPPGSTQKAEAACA
Summary of the method: as §1

[5] = biological target: 140 purified human kinases (Homo sapiens, UniProt Q9P1W9)
Summary of the method: as §1

[6] = biological target: 140 purified human kinases (Homo sapiens, UniProt P00519); details: ABL
Summary of the method: as §1

[7] = biological target: 140 purified human kinases (Homo sapiens, UniProt Q9HBH9)
Summary of the method: as §1

140 purified human kinases (Homo sapiens, UniProt O96017), sequence (O96017 whole entry): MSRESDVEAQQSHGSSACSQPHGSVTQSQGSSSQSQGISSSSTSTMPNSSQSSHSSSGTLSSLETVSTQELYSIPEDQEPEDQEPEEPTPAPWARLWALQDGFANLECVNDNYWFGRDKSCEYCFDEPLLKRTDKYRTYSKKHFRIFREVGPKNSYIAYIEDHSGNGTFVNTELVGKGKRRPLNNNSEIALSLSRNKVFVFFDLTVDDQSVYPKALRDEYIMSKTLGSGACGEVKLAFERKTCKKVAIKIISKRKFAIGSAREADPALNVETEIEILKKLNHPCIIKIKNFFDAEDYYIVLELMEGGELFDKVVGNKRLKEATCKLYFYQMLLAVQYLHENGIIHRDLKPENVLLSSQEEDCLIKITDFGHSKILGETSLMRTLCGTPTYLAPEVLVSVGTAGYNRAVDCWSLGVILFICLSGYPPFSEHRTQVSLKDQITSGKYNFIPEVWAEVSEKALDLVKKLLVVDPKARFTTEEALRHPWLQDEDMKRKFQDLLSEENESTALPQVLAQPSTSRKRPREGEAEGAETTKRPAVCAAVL
140 purified human kinases (Homo sapiens, UniProt Q9P1W9), sequence (Q9P1W9 whole entry): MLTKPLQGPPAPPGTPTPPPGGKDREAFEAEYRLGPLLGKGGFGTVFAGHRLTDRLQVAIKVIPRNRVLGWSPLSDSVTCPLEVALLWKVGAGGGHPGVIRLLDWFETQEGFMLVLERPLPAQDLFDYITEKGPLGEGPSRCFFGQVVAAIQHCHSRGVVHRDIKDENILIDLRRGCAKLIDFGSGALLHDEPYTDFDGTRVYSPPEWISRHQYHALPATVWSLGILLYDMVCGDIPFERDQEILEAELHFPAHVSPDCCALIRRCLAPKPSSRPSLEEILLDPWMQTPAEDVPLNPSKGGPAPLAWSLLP
140 purified human kinases (Homo sapiens, UniProt Q13164), sequence (Q13164 whole entry): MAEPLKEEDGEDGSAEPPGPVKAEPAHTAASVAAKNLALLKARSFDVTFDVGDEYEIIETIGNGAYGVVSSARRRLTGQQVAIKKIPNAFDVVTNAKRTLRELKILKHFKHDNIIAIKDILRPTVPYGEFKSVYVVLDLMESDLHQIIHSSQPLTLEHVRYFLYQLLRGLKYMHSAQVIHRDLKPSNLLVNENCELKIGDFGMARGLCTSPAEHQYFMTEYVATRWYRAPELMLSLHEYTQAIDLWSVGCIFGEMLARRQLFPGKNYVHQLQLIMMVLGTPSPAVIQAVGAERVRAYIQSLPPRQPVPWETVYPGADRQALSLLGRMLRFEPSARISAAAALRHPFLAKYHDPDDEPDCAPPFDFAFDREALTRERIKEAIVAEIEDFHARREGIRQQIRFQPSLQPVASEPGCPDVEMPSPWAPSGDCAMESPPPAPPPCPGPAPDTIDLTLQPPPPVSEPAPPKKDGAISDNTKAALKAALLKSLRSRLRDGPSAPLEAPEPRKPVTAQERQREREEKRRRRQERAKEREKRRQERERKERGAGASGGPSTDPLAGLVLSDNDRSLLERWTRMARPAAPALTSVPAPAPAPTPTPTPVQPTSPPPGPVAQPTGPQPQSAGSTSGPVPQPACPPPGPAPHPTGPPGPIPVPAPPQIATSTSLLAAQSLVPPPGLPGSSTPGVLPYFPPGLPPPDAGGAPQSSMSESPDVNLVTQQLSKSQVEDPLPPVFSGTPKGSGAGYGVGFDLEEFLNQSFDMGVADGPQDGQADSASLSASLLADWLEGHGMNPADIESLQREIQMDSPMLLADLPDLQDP
140 purified human kinases (Homo sapiens, UniProt Q9HBH9), sequence (Q9HBH9 whole entry): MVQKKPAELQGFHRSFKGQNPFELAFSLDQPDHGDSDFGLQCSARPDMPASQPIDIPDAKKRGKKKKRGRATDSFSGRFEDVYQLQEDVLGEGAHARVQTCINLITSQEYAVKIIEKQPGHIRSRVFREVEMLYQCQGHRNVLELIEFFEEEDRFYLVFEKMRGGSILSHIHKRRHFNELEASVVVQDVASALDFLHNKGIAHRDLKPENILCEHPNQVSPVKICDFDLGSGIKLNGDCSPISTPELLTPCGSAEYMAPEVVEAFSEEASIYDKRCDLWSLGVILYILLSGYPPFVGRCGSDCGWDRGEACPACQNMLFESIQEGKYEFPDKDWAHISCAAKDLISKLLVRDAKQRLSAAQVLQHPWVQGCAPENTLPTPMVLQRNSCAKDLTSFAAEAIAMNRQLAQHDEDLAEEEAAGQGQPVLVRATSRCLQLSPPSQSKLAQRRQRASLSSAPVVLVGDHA
140 purified human kinases (Homo sapiens, UniProt P00519), sequence (P00519 whole entry): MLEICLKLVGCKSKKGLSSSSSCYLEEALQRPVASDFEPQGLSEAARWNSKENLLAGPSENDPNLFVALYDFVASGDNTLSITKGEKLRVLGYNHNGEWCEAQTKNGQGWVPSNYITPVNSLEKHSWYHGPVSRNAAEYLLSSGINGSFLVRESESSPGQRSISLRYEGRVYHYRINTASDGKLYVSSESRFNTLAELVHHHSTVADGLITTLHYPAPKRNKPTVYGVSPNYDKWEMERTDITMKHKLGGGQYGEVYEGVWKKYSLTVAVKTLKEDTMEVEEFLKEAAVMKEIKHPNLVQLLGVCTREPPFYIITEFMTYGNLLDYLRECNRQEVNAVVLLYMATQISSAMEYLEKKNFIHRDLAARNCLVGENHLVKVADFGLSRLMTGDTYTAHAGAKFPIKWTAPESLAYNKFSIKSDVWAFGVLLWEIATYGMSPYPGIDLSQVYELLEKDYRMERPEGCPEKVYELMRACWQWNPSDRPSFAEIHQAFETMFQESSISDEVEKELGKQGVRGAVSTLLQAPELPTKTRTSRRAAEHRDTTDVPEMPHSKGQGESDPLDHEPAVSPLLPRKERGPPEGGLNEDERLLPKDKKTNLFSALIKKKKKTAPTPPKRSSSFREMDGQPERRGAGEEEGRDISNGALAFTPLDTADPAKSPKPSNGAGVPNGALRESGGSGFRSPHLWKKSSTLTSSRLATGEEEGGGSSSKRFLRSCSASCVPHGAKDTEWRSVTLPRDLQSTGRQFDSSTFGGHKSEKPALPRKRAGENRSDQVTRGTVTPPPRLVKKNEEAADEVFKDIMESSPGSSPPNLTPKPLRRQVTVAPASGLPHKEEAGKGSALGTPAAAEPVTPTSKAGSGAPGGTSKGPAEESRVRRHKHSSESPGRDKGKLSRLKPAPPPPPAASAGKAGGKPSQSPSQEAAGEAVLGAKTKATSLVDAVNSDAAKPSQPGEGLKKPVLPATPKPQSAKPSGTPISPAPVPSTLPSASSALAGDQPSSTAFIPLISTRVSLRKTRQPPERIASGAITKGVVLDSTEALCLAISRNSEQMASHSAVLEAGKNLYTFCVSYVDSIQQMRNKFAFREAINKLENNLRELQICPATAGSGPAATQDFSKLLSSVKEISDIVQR

[Cu+2].[Cu+2].[Cu+2].c1ccc(-c2csc(NCCN(CCNc3nc(-c4ccccn4)cs3)CCNc3nc(-c4ccccn4)cs3)n2)nc1.c1ccc(-c2csc(NCCN(CCNc3nc(-c4ccccn4)cs3)CCNc3nc(-c4ccccn4)cs3)n2)nc1 [[L2Cu3]6+]
% Inhibition Run 1 [1]: 45.4% | % Inhibition Run 2 [1]: 66.7% | % Inhibition, Mean [1]: 56% | mean % activity [1]: 44% | % activity ([1]; Run 1): 54.6% | % activity ([1]; Run 2): 33.3% | % Inhibition Run 1 ([2]; CHK2): 86.3% | % Inhibition Run 2 ([2]; CHK2): 76.4% | % Inhibition, Mean ([2]; CHK2): 81% | mean % activity ([2]; CHK2): 19% | % activity ([2]; CHK2, Run 1): 13.7% | % activity ([2]; CHK2, Run 2): 23.6% | % Activation, Mean value ([3]; ERK5): 2% | % Inhibition Run 1 ([3]; ERK5): 3% | % Inhibition Run 2 ([3]; ERK5): -7.2% | % Inhibition, Mean ([3]; ERK5): -2% | mean % activity ([3]; ERK5): 102% | % activity ([3]; ERK5, Run 1): 97% | % activity ([3]; ERK5, Run 2): 107.2% | % Inhibition Run 1 ([4]; ZAP70): 94% | % Inhibition Run 2 ([4]; ZAP70): 89.2% | % Inhibition, Mean ([4]; ZAP70): 92% | mean % activity ([4]; ZAP70): 8% | % activity ([4]; ZAP70, Run 1): 6% | % activity ([4]; ZAP70, Run 2): 10.8% | % Activity inhibition Mean ([4]; ZAP70): 91.6% | % Activity inhibition Run 1 ([4]; ZAP70): 94% | % Activity inhibition Run 2 ([4]; ZAP70): 89.2% | % Activity remaining Run 1 ([4]; ZAP70): 6.00% | % Activity remaining Run 2 ([4]; ZAP70): 10.80% | % Inhibition Run 1 ([5]; PIM2): -3.6% | % Inhibition Run 2 ([5]; PIM2): 7% | % Inhibition, Mean ([5]; PIM2): 1.7% | mean % activity ([5]; PIM2): 98% | % activity ([5]; PIM2, Run 1): 103.6% | % activity ([5]; PIM2, Run 2): 93% | % Activation, Mean value [6]: 17% | % Inhibition Run 1 [6]: -27.4% | % Inhibition Run 2 [6]: -7.5% | % Inhibition, Mean [6]: -17% | mean % activity [6]: 117% | % activity ([6]; Run 1): 127.4% | % activity ([6]; Run 2): 107.5% | % Activity Run 1 ([6]; 10 µM): 127.40% | % Activity Run 2 ([6]; 10 µM): 107.50% | % Inhibition Run 1 ([7]; MNK2): 59.3% | % Inhibition Run 2 ([7]; MNK2): 57.8% | % Inhibition, Mean ([7]; MNK2): 59% | mean % activity ([7]; MNK2): 41% | % activity ([7]; MNK2, Run 1): 40.7% | % activity ([7]; MNK2, Run 2): 42.2%

CC(=O)[O-].CC(=O)[O-].CC(=O)[O-].CC(=O)[O-].CC(=O)[O-].CC(=O)[O-].[Zn+2].[Zn+2].[Zn+2].c1ccc(-c2csc(NCCN(CCNc3nc(-c4ccccn4)cs3)CCNc3nc(-c4ccccn4)cs3)n2)nc1.c1ccc(-c2csc(NCCN(CCNc3nc(-c4ccccn4)cs3)CCNc3nc(-c4ccccn4)cs3)n2)nc1 [[L2Zn3]6+]
% Inhibition, Mean [1]: 42% | % Inhibition, Run 1 / Run 2 [1]: 45% and 40% | mean % activity [1]: 58% | % activity ([1]; duplicate runs): 56% and 60% | % Inhibition, Mean ([2]; CHK2): 22% | mean % activity ([2]; CHK2): 78% | % activity ([2]; CHK2, duplicate runs): 64% and 92% | % Inhibition, Mean ([3]; ERK5): 16% | mean % activity ([3]; ERK5): 84% | % activity ([3]; ERK5, duplicate runs): 65% and 104% | % Inhibition, Mean ([4]; ZAP70): 89% | % Inhibition, Run 1 / Run 2 ([4]; ZAP70): 91% and 88% | mean % activity ([4]; ZAP70): 11% | % Activity inhibition Mean ([4]; ZAP70): 89.0% | % Activity inhibition Run 1 ([4]; ZAP70): 90% | % Activity inhibition Run 2 ([4]; ZAP70): 88% | % Activity remaining Run 1 ([4]; ZAP70): 10% | % Activity remaining Run 2 ([4]; ZAP70): 12% | % activity ([4]; ZAP70, duplicate runs): 9.5% and 12% | % Inhibition, Mean ([5]; PIM2): 1.85% | mean % activity ([5]; PIM2): 98% | % activity ([5]; PIM2, duplicate runs): 87% and 109% | % Inhibition, Mean [6]: 9% | mean % activity [6]: 91% | % activity ([6]; duplicate runs): 81% and 100% | % Inhibition, Mean ([7]; MNK2): 33% | % Inhibition, Run 1 / Run 2 ([7]; MNK2): 44% and 22% | mean % activity ([7]; MNK2): 67% | % activity ([7]; MNK2, duplicate runs): 57% and 78%

From article PMC8222254, “Self-assembly of an anion receptor with metal-dependent kinase inhibition and potent in vitro anti-cancer properties” (Nature Communications, 2021)
